Legend:
[1] = biological target: T1, PDGFRα tyrosine kinase (Homo sapiens, UniProt P16234); experiment: In vitro enzyme assay (ELISA), Test (a), PDGFRα; type: biochemical; conditions: ATP 14 μM, read-out: IC50 versus PDGFRα tyrosine kinase
T1 construct: PDGFRα, PDGFRβ and KDR receptor cytoplasmic domains, obtained by expression of recombinant protein in insect cells; purchased Upstate Biotechnology Inc. 14-467; host or cells: Sf9 insect cells
Method: (§1) The ability of test compounds to inhibit the phosphorylation of a tyrosine containing polypeptide substrate by the tyrosine kinase enzymes PDGFRα, PDGFRβ and KDR was assessed using conventional ELISA assays. DNA encoding the PDGFRα, PDGFRβ or KDR receptor cytoplasmic domains may be obtained by total gene synthesis (International Biotechnology Lab., 1987, 5(3), 19-25) or by cloning. The DNA fragments may be expressed in a suitable expression system to obtain polypeptide with tyrosine kinase activity. For example, PDGFRα, PDGFRβ and KDR receptor cytoplasmic domains, obtained by expression of recombinant protein in insect cells, can be shown to display intrinsic tyrosine kinase activity. In the case of the VEGF receptor KDR (Genbank Accession No. L04947), a DNA fragment encoding most of the cytoplasmic domain, commencing with methionine 806 and including the termination codon may be cloned into a baculovirus transplacement vector [for example pAcYM1 (see The Baculovirus Expression System: A Laboratory Guide, L. A. King and R. D. Possee, Chapman and Hall, 1992) or pAc360 or pBlueBacHis (available from Invitrogen Corporation)]. This recombinant construct may be co-transfected into insect cells [for example Spodoptera frugiperda 21(Sf21) or Spodoptera frugiperda 9(Sf9)] with viral DNA (for example Pharmingen BaculoGold) to prepare recombinant baculovirus. […]

[2] = biological target: T2, PDGFRβ tyrosine kinase (Homo sapiens, UniProt P09619); experiment: In vitro enzyme assay (ELISA), Test (a), PDGFRβ; type: biochemical; conditions: ATP 2.8 μM, read-out: IC50 versus PDGFRβ tyrosine kinase
T2 construct: PDGFRα, PDGFRβ and KDR receptor cytoplasmic domains, obtained by expression of recombinant protein in insect cells; purchased Upstate Biotechnology Inc. 14-463; host or cells: Sf9 insect cells
Method: as §1

[3] = biological target: T3, KDR tyrosine kinase (Homo sapiens, UniProt P35968); experiment: In vitro enzyme assay (ELISA), Test (a), KDR; type: biochemical; conditions: ATP 8 μM, read-out: IC50 versus KDR tyrosine kinase
T3 construct: a DNA fragment encoding most of the cytoplasmic domain, commencing with methionine 806 and including the termination codon; made in house; host or cells: Sf9 insect cells (recombinant baculovirus)
Method: The ability of test compounds to inhibit the phosphorylation of a tyrosine containing polypeptide substrate by the tyrosine kinase enzymes PDGFRα, PDGFRβ and KDR was assessed using conventional ELISA assays. DNA encoding the PDGFRα, PDGFRβ or KDR receptor cytoplasmic domains may be obtained by total gene synthesis (International Biotechnology Lab., 1987, 5(3), 19-25) or by cloning. The DNA fragments may be expressed in a suitable expression system to obtain polypeptide with tyrosine kinase activity. For example, PDGFRα, PDGFRβ and KDR receptor cytoplasmic domains, obtained by expression of recombinant protein in insect cells, can be shown to display intrinsic tyrosine kinase activity. In the case of the VEGF receptor KDR (Genbank Accession No. L04947), a DNA fragment encoding most of the cytoplasmic domain, commencing with methionine 806 and including the termination codon may be cloned into a baculovirus transplacement vector [for example pAcYM1 (see The Baculovirus Expression System: A Laboratory Guide, L. A. King and R. D. Possee, Chapman and Hall, 1992) or pAc360 or pBlueBacHis (available from Invitrogen Corporation)]. This recombinant construct may be co-transfected into insect cells [for example Spodoptera frugiperda 21(Sf21) or Spodoptera frugiperda 9(Sf9)] with viral DNA (for example Pharmingen BaculoGold) to prepare recombinant baculovirus. Details of the methods for the assembly of recombinant DNA molecules and the preparation and use of recombinant baculovirus can be found in standard texts, for example Sambrook et al., 1989, Molecular cloning—A Laboratory Manual, 2nd edition, Cold Spring Harbour Laboratory Press and O'Reilly et al., 1992, Baculovirus Expression Vectors—A Laboratory Manual, W. H. Freeman and Co, New York).
For expression, Sf9 cells were infected with plaque-pure KDR recombinant virus and harvested 48 hours later. […]

[4] = biological target: T4, phospho-Tyr751 PDGFRβ (Homo sapiens, UniProt P09619); experiment: In vitro phospho-Tyr751 PDGFRβ ELISA assay in MG63 osteosarcoma cells, Test (b); type: cell-based; conditions: MG63 cells stimulated with PDGFBB, read-out: IC50 versus phospho-Tyr751 PDGFRβ
T4 construct: phosphorylation of PDGFR expressed on MG63 osteosarcoma cells; endogenous in cells; host or cells: MG63 osteosarcoma cells
Method: This assay uses a conventional ELISA method to determine the ability of test compounds to inhibit phosphorylation of tyrosine in PDGFRβ.
An MG63 osteosarcoma cell line [American Type Culture Collection (ATCC) CCL 1427] was routinely maintained at 37° C. with 7.5% CO2 in Dulbecco's modified Eagle's growth medium (DMEM; Sigma-Aldrich; Catalogue No. D6546) containing 10% foetal calf serum (FCS; Sigma-Aldrich; Catalogue No. F7524) and 2 mM L-glutamine (Invitrogen Ltd., Paisley, UK; Catalogue No. 25030-024).
For the assay, the cells were detached from the culture flask using a trypsin/ethylenediaminetetraacetic acid (EDTA) mixture (Invitrogen Ltd.; Catalogue No. 15400-054) and resuspended in test media comprising DMEM without phenol red (Sigma-1-Aldrich; Catalogue No. D5921) containing 1% charcoal-stripped-foetal calf serum (FCS) (Sigma-Aldrich; Catalogue No. F7524, stripped by incubation with dextran-coated activated charcoal at 55° C. for 30 minutes with continuous stirring followed by removal of the charcoal by centrifugation and filter sterilisation) and 2 mM L-glutamine (Invitrogen Ltd., Catalogue No. 25030-024) to give 6×10^4 cells per ml. […]

[5] = test system: PDGF receptor kinase; conditions: Nature Reviews 2002; Cancer Research 1996; cited from earlier work
[6] = test system: human glioblastoma lines U343 and U87; conditions: U343 and U87 injected into the brains of nude mice; Cancer Research 2000; cited from earlier work
[7] = test system: dermatofibrosarcoma protruberans cell cultures; conditions: Cancer Research 2001; cited from earlier work

T3 sequence (P35968 786-1356 limits assumed): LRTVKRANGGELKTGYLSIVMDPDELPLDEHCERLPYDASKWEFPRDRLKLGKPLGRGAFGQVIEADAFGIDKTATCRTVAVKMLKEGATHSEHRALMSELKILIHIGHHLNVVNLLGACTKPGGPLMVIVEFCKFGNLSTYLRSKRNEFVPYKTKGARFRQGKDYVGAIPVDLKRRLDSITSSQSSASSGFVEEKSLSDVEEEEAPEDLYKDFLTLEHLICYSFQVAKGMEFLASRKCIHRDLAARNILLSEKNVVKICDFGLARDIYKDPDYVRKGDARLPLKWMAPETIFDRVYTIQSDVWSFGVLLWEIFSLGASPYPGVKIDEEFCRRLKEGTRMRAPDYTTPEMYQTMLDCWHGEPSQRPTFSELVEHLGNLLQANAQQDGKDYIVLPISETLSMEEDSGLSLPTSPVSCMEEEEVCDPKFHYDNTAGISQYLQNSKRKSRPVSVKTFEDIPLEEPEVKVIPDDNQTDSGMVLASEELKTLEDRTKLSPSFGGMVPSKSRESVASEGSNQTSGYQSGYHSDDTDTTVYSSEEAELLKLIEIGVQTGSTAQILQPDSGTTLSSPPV
T1 sequence (P16234 550-1089 limits assumed): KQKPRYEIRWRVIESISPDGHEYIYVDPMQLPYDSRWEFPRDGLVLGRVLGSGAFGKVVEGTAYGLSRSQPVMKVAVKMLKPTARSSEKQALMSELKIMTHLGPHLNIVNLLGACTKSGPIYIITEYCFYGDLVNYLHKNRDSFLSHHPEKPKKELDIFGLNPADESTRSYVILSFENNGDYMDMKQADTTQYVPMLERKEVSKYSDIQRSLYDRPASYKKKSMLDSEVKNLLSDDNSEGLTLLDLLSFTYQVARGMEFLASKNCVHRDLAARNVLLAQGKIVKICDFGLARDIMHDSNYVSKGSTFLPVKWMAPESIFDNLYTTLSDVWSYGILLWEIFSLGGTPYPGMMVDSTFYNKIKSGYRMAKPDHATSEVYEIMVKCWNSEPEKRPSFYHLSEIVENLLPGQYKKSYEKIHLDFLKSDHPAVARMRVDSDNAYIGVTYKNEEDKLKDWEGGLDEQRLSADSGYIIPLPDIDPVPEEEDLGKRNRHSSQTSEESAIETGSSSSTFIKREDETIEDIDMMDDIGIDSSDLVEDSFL
T2 sequence (P09619 554-1106 limits assumed): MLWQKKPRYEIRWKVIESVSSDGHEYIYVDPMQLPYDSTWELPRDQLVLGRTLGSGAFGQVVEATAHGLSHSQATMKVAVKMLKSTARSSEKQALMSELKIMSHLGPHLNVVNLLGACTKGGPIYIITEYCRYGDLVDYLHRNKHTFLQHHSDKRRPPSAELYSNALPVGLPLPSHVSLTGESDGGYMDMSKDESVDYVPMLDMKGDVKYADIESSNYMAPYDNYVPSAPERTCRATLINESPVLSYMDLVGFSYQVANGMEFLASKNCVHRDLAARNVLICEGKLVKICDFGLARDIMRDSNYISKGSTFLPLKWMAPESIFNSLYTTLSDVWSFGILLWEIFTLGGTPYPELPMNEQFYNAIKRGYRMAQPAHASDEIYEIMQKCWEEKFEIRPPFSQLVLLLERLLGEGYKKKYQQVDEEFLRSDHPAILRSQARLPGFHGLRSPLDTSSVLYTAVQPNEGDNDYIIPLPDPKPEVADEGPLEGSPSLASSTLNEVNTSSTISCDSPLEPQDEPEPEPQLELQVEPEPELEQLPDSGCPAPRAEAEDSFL
T4 sequence (P09619 33-1106): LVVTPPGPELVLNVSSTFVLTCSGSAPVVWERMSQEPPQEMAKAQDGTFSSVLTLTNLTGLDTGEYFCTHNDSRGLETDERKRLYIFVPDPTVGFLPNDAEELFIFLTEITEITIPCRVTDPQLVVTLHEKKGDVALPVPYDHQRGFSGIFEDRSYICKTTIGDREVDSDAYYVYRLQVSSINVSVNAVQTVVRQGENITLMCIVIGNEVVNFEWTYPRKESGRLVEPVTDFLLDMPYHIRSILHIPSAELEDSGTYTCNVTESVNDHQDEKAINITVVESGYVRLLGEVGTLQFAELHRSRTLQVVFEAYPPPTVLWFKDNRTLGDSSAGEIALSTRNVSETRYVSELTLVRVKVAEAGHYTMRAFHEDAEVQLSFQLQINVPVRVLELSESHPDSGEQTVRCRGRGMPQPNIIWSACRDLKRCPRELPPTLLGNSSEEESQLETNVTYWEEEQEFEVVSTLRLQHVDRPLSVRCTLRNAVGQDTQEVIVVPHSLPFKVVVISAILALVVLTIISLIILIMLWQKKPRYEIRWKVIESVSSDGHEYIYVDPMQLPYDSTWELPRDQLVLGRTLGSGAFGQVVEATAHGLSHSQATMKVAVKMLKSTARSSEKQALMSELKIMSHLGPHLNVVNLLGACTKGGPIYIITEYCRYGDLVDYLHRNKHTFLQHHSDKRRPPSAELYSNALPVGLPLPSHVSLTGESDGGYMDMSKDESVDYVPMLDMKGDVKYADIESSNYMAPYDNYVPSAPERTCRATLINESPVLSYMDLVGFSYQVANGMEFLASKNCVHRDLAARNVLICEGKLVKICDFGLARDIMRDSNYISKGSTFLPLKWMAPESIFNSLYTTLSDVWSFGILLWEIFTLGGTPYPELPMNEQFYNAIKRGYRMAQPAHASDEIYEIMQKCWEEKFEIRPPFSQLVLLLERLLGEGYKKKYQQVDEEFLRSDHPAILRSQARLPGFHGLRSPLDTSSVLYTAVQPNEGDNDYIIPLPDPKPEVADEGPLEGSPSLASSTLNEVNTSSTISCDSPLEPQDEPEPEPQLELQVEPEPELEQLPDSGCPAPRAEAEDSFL

With `COc1cc2ncnc(Oc3cnn(CC(=O)Nc4ccc5c(c4)OCO5)c3)c2cc1OC` [Example 1, N-(3,4-methylenedioxyphenyl)-2-[4-(6,7-dimethoxyquinazolin-4-yloxy)pyrazol-1-yl]acetamide] the IC50 [1] was roughly 7 nM, the IC50 [2] was roughly 0.5 nM and the IC50 [3] was roughly 30 nM.

With `COc1cc2ncnc(Oc3cnn(CC(=O)Nc4ccc5c(c4)NCC5)c3)c2cc1OC` [Example 40, N-(6-indolinyl)-2-[4-(6,7-dimethoxyquinazolin-4-yloxy)pyrazol-1-yl]acetamide] the IC50 [3] was roughly 2 nM and the IC50 [4] was roughly 1 nM.

For `Cc1ccc(NC(=O)c2ccc(CN3CCN(C)CC3)cc2)cc1Nc1nccc(-c2cccnc2)n1` [imatinib], the “inhibition of PDGF receptor kinase activity” value [5] is listed as “inhibit PDGF receptor kinase activity”, the “growth of glioblastoma tumours” value [6] is listed as “inhibits the growth” and the “in vivo growth of dermatofibrosarcoma protruberans cell cultures” value [7] is listed as “inhibits the in vivo growth”.

From patent US20090036474A1, “Quinazoline derivatives for use against cancer” (priority 2004, published 2009)
